According to US11040038B2, “Methods for treating diseases associated with abnormal ACVR1 expression and ACVR1 inhibitors for use in the same” (Sumitomo Dainippon Pharma Oncology, Inc., priority 2018, dated 2021):
Where “and” joins values, the source holds several entries; their conditions need not be identical. Equal entries are not always repeated. Where two headings read alike, the source gives them in different places.

Tests used:
[1] = Pharmacokinetics and relative bioavailability after a single oral dose (two liquid formulations, powder in capsule); assay type: in vivo, male Beagle dogs; details: for Kel / MRTobs / AUC0-TLast / AUC0-∞ / CL/F / Cmax / t1/2 / AUC(0-inf) / Tmax / half-life / AUC(0-t) / Vd/F: plasma; for AUC(0-t): read-out: AUC0-TLast; for Vd/F: read-out: Vz/F
Source text: The purpose of the study is to dose two suspension formulations of Compound 2 at two dose levels by gavage to Beagle dogs and to collect blood samples for the determination of plasma concentrations, derivation of pharmacokinetic parameters and to determine the relative bioavailability of the two suspension formulations. The pharmacokinetics of Compound 2 would be evaluated following oral administration in capsules and the relative bioavailability of this dosage form to the oral liquid formulations was determined.
This study involves the dosing of the test item by the oral route over three periods separated by a 7 days washout period as outlined in Table 43, Table 44, and Table 45. The third period of the study outlined in Table 45 is considered to be optional and will only be performed at the Sponsor's request. Prior to the day of dosing, food will be removed from the dogs at 4:00 pm and reintroduced 2 hrs after dosing.
For oral administration of the formulations, the test item was administered via a stomach tube followed by the administration of 10 mL of tap water. For oral administration of capsules, the capsule was placed on the back of the tongue to encourage swallowing followed by administration of 10 mL of tap water. The oral cavity was then be inspected to make sure the capsule was swallowed. The actual volume of dosing formulation administered will be calculated based on the animal's most recently scheduled body weight.
The pharmacokinetic parameters for Compound 2 in solution as Formulation #1 (Table 43) and Formulation #2 (Table 44) along with data for the dosing of Compound 2 powder in capsule (Table 45) are presented in Table 46.

[2] = Preliminary brain PK study; assay type: in vivo; details: mouse, mice, brain tissue
Experimental: In order to be an effective treatment for DIPG, Compound 2 needs to distribute to the brain and more importantly, achieve fairly deep penetration to the pons region of the brain. To assess the general distribution of Compound 2 to the brain, a preliminary brain PK study was conducted. Brain tissue concentrations show very good distribution to the brain (FIG. 4A).

[3] = Formulation #1 (Table 43), 2 mg/kg oral, male Beagle dogs, Mean
[4] = Formulation #1 (Table 43), 2 mg/kg oral, male Beagle dogs, individual dog, 2 mg/kg
[5] = Formulation #1 (Table 43), 5 mg/kg oral, male Beagle dogs, Mean
[6] = Formulation #1 (Table 43), 5 mg/kg oral, male Beagle dogs, individual dog, 5 mg/kg
[7] = Formulation #2 (Table 44), 2 mg/kg oral, male Beagle dogs, Mean
[8] = Formulation #2 (Table 44), 2 mg/kg oral, male Beagle dogs, individual dog, 2 mg/kg
[9] = Formulation #2 (Table 44), 5 mg/kg oral, male Beagle dogs, Mean
[10] = Formulation #2 (Table 44), 5 mg/kg oral, male Beagle dogs, individual dog, 5 mg/kg
[11] = Powder in Capsule (Table 45), 2 mg/kg oral, male Beagle dogs, Mean
[12] = Powder in Capsule (Table 45), 2 mg/kg oral, male Beagle dogs, individual dog, 2 mg/kg
[13] = Powder in Capsule (Table 45), 5 mg/kg oral, male Beagle dogs, Mean
[14] = Powder in Capsule (Table 45), 5 mg/kg oral, male Beagle dogs, individual dog, 5 mg/kg
[15] = male, Beagle, dog, po, 2 mg/kg, Formulation #1 (Table 43), 2 mg/kg oral, male Beagle dogs, Mean
[16] = male, Beagle, dog, po, 2 mg/kg, Formulation #1 (Table 43), 2 mg/kg oral, male Beagle dogs, individual dog
[17] = male, Beagle, dog, po, 2 mg/kg, Formulation #2 (Table 44), 2 mg/kg oral, male Beagle dogs, Mean
[18] = male, Beagle, dog, po, 2 mg/kg, Formulation #2 (Table 44), 2 mg/kg oral, male Beagle dogs, individual dog
[19] = male, Beagle, dog, po, 2 mg/kg, Powder in Capsule (Table 45), 2 mg/kg oral, male Beagle dogs, Mean
[20] = male, Beagle, dog, po, 2 mg/kg, Powder in Capsule (Table 45), 2 mg/kg oral, male Beagle dogs, individual dog
[21] = male, Beagle, dog, po, 5 mg/kg, Formulation #1 (Table 43), 5 mg/kg oral, male Beagle dogs, Mean
[22] = male, Beagle, dog, po, 5 mg/kg, Formulation #1 (Table 43), 5 mg/kg oral, male Beagle dogs, individual dog
[23] = male, Beagle, dog, po, 5 mg/kg, Formulation #2 (Table 44), 5 mg/kg oral, male Beagle dogs, Mean
[24] = male, Beagle, dog, po, 5 mg/kg, Formulation #2 (Table 44), 5 mg/kg oral, male Beagle dogs, individual dog
[25] = male, Beagle, dog, po, 5 mg/kg, Powder in Capsule (Table 45), 5 mg/kg oral, male Beagle dogs, Mean
[26] = male, Beagle, dog, po, 5 mg/kg, Powder in Capsule (Table 45), 5 mg/kg oral, male Beagle dogs, individual dog
[27] = Table 4, route and dose not given
[28] = Table 5, route and dose not given

## COc1cc(Nc2nccc(Nc3cccnc3-c3ccccn3)n2)ccc1N1CCN(C)CC1 [Compound 2, N^4-(2,2′-bipyridin-3-yl)-N^2-(3-methoxy-4-(4-methylpiperazin-1-yl)phenyl)pyrimidine-2,4-diamine]
[1]; [3]
  Kel: 0.124 h⁻¹
  MRTobs: 9.32 h
[1]; [4]
  AUC0-TLast: 87 ng·h/mL and 77 ng·h/mL
  AUC0-∞: 92 ng·h/mL and 82 ng·h/mL
  CL/F: 367 mL/min/kg and 400 mL/min/kg
  Cmax: 8.69 ng/mL and 7.27 ng/mL
  Kel: 0.116 h⁻¹ and 0.133 h⁻¹ and 0.124 h⁻¹
  MRTobs: 10.05 h and 8.64 h and 9.26 h
  t1/2: 5.2 h
[1]; [5]
  Kel: 0.138 h⁻¹
  MRTobs: 8.71 h
[1]; [6]
  AUC0-TLast: 190 ng·h/mL and 453 ng·h/mL and 198 ng·h/mL
  AUC0-∞: 204 ng·h/mL and 475 ng·h/mL
  CL/F: 417 mL/min/kg and 183 mL/min/kg
  Cmax: 15.51 ng/mL and 46.76 ng/mL and 21.15 ng/mL
  Kel: 0.115 h⁻¹ and 0.136 h⁻¹ and 0.162 h⁻¹
  MRTobs: 9.72 h and 8.6 h and 7.82 h
  t1/2: 5.1 h and 4.3 h
[1]; [7]
  Kel: 0.150 h⁻¹
  MRTobs: 8.49 h
[1]; [8]
  AUC0-TLast: 115 ng·h/mL and 44 ng·h/mL
  AUC0-∞: 148 ng·h/mL and 120 ng·h/mL and 47 ng·h/mL
  CL/F: 217 mL/min/kg and 283 mL/min/kg and 717 mL/min/kg
  Cmax: 19.72 ng/mL and 10.43 ng/mL and 4.59 ng/mL
  Kel: 0.179 h⁻¹ and 0.145 h⁻¹ and 0.125 h⁻¹
  MRTobs: 7.31 h and 9.2 h and 8.96 h
  t1/2: 4.8 h and 5.5 h
[1]; [9]
  Kel: 0.142 h⁻¹
  MRTobs: 8.28 h
[1]; [10]
  AUC0-TLast: 151 ng·h/mL and 342 ng·h/mL and 141 ng·h/mL
  AUC0-∞: 159 ng·h/mL and 357 ng·h/mL and 146 ng·h/mL
  CL/F: 517 mL/min/kg and 233 mL/min/kg and 567 mL/min/kg
  Cmax: 17.70 ng/mL and 34.08 ng/mL and 14.91 ng/mL
  Kel: 0.129 h⁻¹ and 0.142 h⁻¹ and 0.153 h⁻¹
  MRTobs: 8.44 h and 8.7 h and 7.71 h
  t1/2: 4.9 h and 4.5 h
[1]; [11]
  Kel: 0.304 h⁻¹
  MRTobs: 5.23 h
[1]; [12]
  AUC0-TLast: 53 ng·h/mL and 49 ng·h/mL and 112 ng·h/mL
  AUC0-∞: 58 ng·h/mL and 122 ng·h/mL
  CL/F: 583 mL/min/kg and 267 mL/min/kg
  Cmax: 9.55 ng/mL and 13.83 ng/mL and 21.31 ng/mL
  Kel: 0.293 h⁻¹ and 0.314 h⁻¹
  MRTobs: 5.15 h and 5.30 h
  t1/2: 2.2 h
[1]; [13]
  Kel: 0.233 h⁻¹
  MRTobs: 6.44 h
[1]; [14]
  AUC0-TLast: 139 ng·h/mL and 107 ng·h/mL
  AUC0-∞: 142 ng·h/mL and 122 ng·h/mL
  CL/F: 583 mL/min/kg and 683 mL/min/kg
  Cmax: 43.79 ng/mL and 14.66 ng/mL and 18.21 ng/mL
  Kel: 0.255 h⁻¹ and 0.183 h⁻¹ and 0.261 h⁻¹
  MRTobs: 5.79 h and 7.62 h and 5.92 h
  t1/2: 3.8 h
[1]; beagle dogs, oral, all formulations
  time of appearance in the plasma post dosing: ≤ 0.5 h
[1]; male, Beagle, dog, po, 2 mg/kg, 2 mg/kg oral, range across Formulation #1, #2 and powder in capsules, read-out: mean Cmax
  Cmax: 6.78 to 14.9 ng/mL
[1]; [15]
  AUC(0-inf): 74 ng·h/mL
  Tmax: 4.7 h
  half-life: 5.6 h
  AUC(0-t): 70 ng·h/mL
  Vd/F: 237 L/kg
[1]; [16]
  AUC(0-inf): 49 ng·h/mL
  Tmax: 5 h
  half-life: 6 h
  AUC(0-t): 45 ng·h/mL
[1]; male, Beagle, dog, po, 2 mg/kg, Formulation #1 (Table 43), 2 mg/kg oral, male Beagle dogs, Mean, read-out: CL/F (converted)
  CL/F: 483 mL/min/kg
[1]; male, Beagle, dog, po, 2 mg/kg, Formulation #1 (Table 43), 2 mg/kg oral, male Beagle dogs, Mean, read-out: Cmax
  Cmax: 6.78 ng/mL
[1]; male, Beagle, dog, po, 2 mg/kg, Formulation #1 (Table 43), 2 mg/kg oral, male Beagle dogs, individual dog, read-out: CL/F (converted)
  CL/F: 683 mL/min/kg
[1]; male, Beagle, dog, po, 2 mg/kg, Formulation #1 (Table 43), 2 mg/kg oral, male Beagle dogs, individual dog, read-out: Cmax
  Cmax: 4.37 ng/mL
[1]; [17]
  AUC(0-inf): 105 ng·h/mL
  Tmax: 4.7 h
  half-life: 4.7 h
  AUC(0-t): 102 ng·h/mL
  Vd/F: 177 L/kg
[1]; [18]
  Tmax: 4 h
  half-life: 3.9 h
[1]; male, Beagle, dog, po, 2 mg/kg, Formulation #2 (Table 44), 2 mg/kg oral, male Beagle dogs, Mean, read-out: CL/F (converted)
  CL/F: 400 mL/min/kg
[1]; male, Beagle, dog, po, 2 mg/kg, Formulation #2 (Table 44), 2 mg/kg oral, male Beagle dogs, Mean, read-out: Cmax
  Cmax: 11.6 ng/mL
[1]; [19]
  AUC(0-inf): 90 ng·h/mL
  Tmax: 3 h
  half-life: 2.3 h
  AUC(0-t): 71 ng·h/mL
  Vd/F: 85 L/kg
[1]; [20]
  Tmax: 3 h
  half-life: 2.4 h
[1]; male, Beagle, dog, po, 2 mg/kg, Powder in Capsule (Table 45), 2 mg/kg oral, male Beagle dogs, Mean, read-out: CL/F (converted)
  CL/F: 417 mL/min/kg
[1]; male, Beagle, dog, po, 2 mg/kg, Powder in Capsule (Table 45), 2 mg/kg oral, male Beagle dogs, Mean, read-out: Cmax
  Cmax: 14.9 ng/mL
[1]; male, Beagle, dog, po, 5 mg/kg, 5 mg/kg oral, range across Formulation #1, #2 and powder in capsules, read-out: mean Cmax
  Cmax: 22.2 to 27.8 ng/mL
[1]; [21]
  AUC(0-inf): 294 ng·h/mL
  Tmax: 3.7 h
  half-life: 5.1 h
  AUC(0-t): 280 ng·h/mL
  Vd/F: 147 L/kg
[1]; [22]
  Tmax: 4 h
  half-life: 6 h
[1]; male, Beagle, dog, po, 5 mg/kg, Formulation #1 (Table 43), 5 mg/kg oral, male Beagle dogs, Mean, read-out: CL/F (converted)
  CL/F: 333 mL/min/kg
[1]; male, Beagle, dog, po, 5 mg/kg, Formulation #1 (Table 43), 5 mg/kg oral, male Beagle dogs, Mean, read-out: Cmax
  Cmax: 27.8 ng/mL
[1]; [23]
  AUC(0-inf): 221 ng·h/mL
  Tmax: 3.7 h
  half-life: 4.9 h
  AUC(0-t): 211 ng·h/mL
  Vd/F: 188 L/kg
[1]; [24]
  Tmax: 3 h
  half-life: 5.4 h
[1]; male, Beagle, dog, po, 5 mg/kg, Formulation #2 (Table 44), 5 mg/kg oral, male Beagle dogs, Mean, read-out: CL/F (converted)
  CL/F: 450 mL/min/kg
[1]; male, Beagle, dog, po, 5 mg/kg, Formulation #2 (Table 44), 5 mg/kg oral, male Beagle dogs, Mean, read-out: Cmax
  Cmax: 22.2 ng/mL
[1]; [25]
  AUC(0-inf): 160 ng·h/mL
  Tmax: 4.3 h
  half-life: 3.1 h
  AUC(0-t): 146 ng·h/mL
  Vd/F: 147 L/kg
[1]; [26]
  AUC(0-inf): 215 ng·h/mL
  Tmax: 3 h
  half-life: 2.7 h
  AUC(0-t): 191 ng·h/mL
[1]; male, Beagle, dog, po, 5 mg/kg, Powder in Capsule (Table 45), 5 mg/kg oral, male Beagle dogs, Mean, read-out: CL/F (converted)
  CL/F: 550 mL/min/kg
[1]; male, Beagle, dog, po, 5 mg/kg, Powder in Capsule (Table 45), 5 mg/kg oral, male Beagle dogs, Mean, read-out: Cmax
  Cmax: 25.6 ng/mL
[1]; male, Beagle, dog, po, 5 mg/kg, Powder in Capsule (Table 45), 5 mg/kg oral, male Beagle dogs, individual dog, read-out: CL/F (converted)
  CL/F: 383 mL/min/kg
[1]; male, Beagle, dog, po, 5 mg/kg, beagle dogs, range across formulations at both doses (2 and 5 mg/kg)
  Tmax: 3 to 4.7 h
[2]; [27]
  AUC(0-t): 750 ng·h/mL
  Cmax: 691 ng/g
  Tmax: 0.083 h
  half-life: 1.23 h
[2]; Table 4, route and dose not printed (FIG. 4A: intravenous and oral)
  AUC(0-inf): 758 ng·h/mL
[2]; [28]
  AUC(0-t): 10300 ng·h/mL
  Cmax: 2740 ng/g
  Tmax: 1.8 h
  half-life: 2.57 h
[2]; Table 5, route and dose not printed (FIG. 4A: intravenous and oral)
  AUC(0-inf): 10300 ng·h/mL
